The results in this text go back to the NIST ThermoML archive (doi:10.1016/j.fluid.2014.12.033).

Numbers after ± are expanded uncertainties.

For this data set the following is noted: Liquid.

As to `C1CCCCC1` [cyclohexane], where the note is “Distillation”, the Normal boiling temperature came out at 82 ± 1 °C.
For `CCCCC(CC)COP(=O)(O)OCC(CC)CCCC` (centres undefined) [bis(2-ethylhexyl) hydrogen phosphate], under “DSC”, the Normal boiling temperature was determined as 260 ± 16 °C.
As to `CCCCCCCCO` [octan-1-ol], for the setting “Distillation”, the Normal boiling temperature was determined as 193 ± 1 °C.
With `ClC(Cl)Cl` [trichloromethane], the Normal boiling temperature (Distillation) was 62 ± 1 °C.
